{
  "source": "patent US6953570B2",
  "about": "“Porphyrins with enhanced multi-photon absorption cross-sections for photodynamic therapy” (Montana State University, priority 2001, dated 2005)",
  "assay": "Singlet oxygen 1Δg→3Σg luminescence after two-photon excitation of the photosensitizer",
  "assay_type": "physicochemical",
  "settings": "air-saturated toluene solution, Ti:sapphire regenerative amplifier output 780 nm",
  "procedure": "As illustrated in FIG. 4(a), the ^1Δg→^3Σg luminescence spectra of molecular oxygen in an air-saturated toluene solution of compound I after both one- and two-photon excitation were measured. The one-photon excitation is represented by the dashed line and the two-photon excitation is shown by the solid line. Both spectra are normalized to unity. For one photon excitation, second harmonics of a Ti:sapphire regenerative amplifier, 390 nm, with an average power intensity of 0.5 W/cm^2 were used, while for two-photon excitation, the output of a Ti:sapphire regenerative amplifier, 780 nm, with an average power intensity of 15 W/cm^2 was used. In both cases, the laser beam was slightly focused into a 1-cm cell to give a cylindrical irradiated volume of ˜1.5 mm diameter. The singlet oxygen luminescence spectrum was measured with a nitrogen-cooled Ge detector coupled with Jobin-Yvon monochromator and a lock-in amplifier.\nFIG. 4(b) graphs the dependence of the ^1Δg→^3Σg luminescence intensity (lΔ) on the average illumination intensity, P, of molecular oxygen in an air-saturated toluene solution of compound I after two-photon excitation. The raw experimental data are shown by black squares, with the best power-law fit, lΔ=aP^n with n=2.1±0.1 shown by the dotted line.",
  "data": [
    {"smiles": "Clc1cccc(Cl)c1-c1c2nc(cc3ccc([nH]3)c(-c3ccc(C=Cc4ccc(N(c5ccccc5)c5ccccc5)cc4)cc3)c3nc(cc4ccc1[nH]4)C=C3)C=C2", "note": "[Compound I, 5-[4′″-(diphenylamino)-4″-stilbenyl]-15-[2′,6′-dichlorophenyl]-21H, 23H-porphyrin]", "values": [
      {"measurement": "exponent n of best power-law fit lΔ=aP^n (1Δg→3Σg luminescence intensity lΔ versus average illumination intensity P)", "result": "2.1±0.1"}
    ]}
  ]
}
